Measured values: patent US4918073A, “Diarylalkyl-substituted alkylamines and medicaments containing them” (Hoechst Aktiengesellschaft, priority 1986, dated 1990)
Like-named read-outs stand apart in the source and are kept apart here.

What was measured:
[1] = biological target: 3H-nitrendipine binding, membrane preparation from the cortex of the rat brain; assay: displacement of tritium-labeled nitrendipine from rat brain cortex membranes (calcium-antagonistic activity); conditions: 3H-nitrendipine 0.1 nM, TRIS buffer pH 7.4, 25° C., 60 minutes; read-out: IC50 (displacement of 50% of the radioactively labeled nitrendipine)
Procedure: This test was carried out in a membrane preparation obtained from the cortex of the rat brain and washed several times, the method described by R. J. Gould et al. (Proc. Natl. Acad. Sci. U.S.A. 79, 3656 [1982]) essentially being used. […] The membrane fractions were separated off by vacuum filtration over Whatman-GF/F glass fiber filters and the radioactivity was measured in a liquid scintillation counter. […] The IC50 value, i.e. the concentration of test substance which is capable of displacing 50% of the radioactively labeled nitrendipine, is determined as the characteristic parameter.

[2] = test system: isolated guineapig heart; assay: coronary circulation on the isolated guineapig heart (Langendorff); conditions: Cavia porcellus, vs control hearts; for activation at 0.0001 mg: dose 0.1 μg via feed tube; for activation at 0.0005 mg: dose 0.5 μg via feed tube
Procedure: For this test, female heparinized (2.5 mg of heparin sodium intraperitoneally 1 hour before sacrifice) guineapigs (220-250 g) were sacrificed by a blow on the neck. Immediately after the thorax has been opened, cardiac arrest was induced by cooling the heart with icecold saline solution. The ascending aorta was catheterized and connected to a non-recirculating perfusion system (hydrostatic pressure 65 cm of H2 O) in accordance with the method of Langendorff. Exposure of the heart was folowed by a perfusion period of 30 minutes for adaptation of the heart to the isolated state. A modified Krebs-Henseleit bicarbonate solution (113.8 mM NaCl, 22.0 mM NaHCO3, 4.7 mM KCl, 1.2 mM KH2 PO4, 1.1 mM MgSO4 ×7 H2 O and 2.5 mM CaCl2 ×2 H2 O, equilibrated with 95% of O2 and 5% of CO2, pH 7.41, 38° C.) was used as the perfusate. Glucose (11 mM) and sodium pyruvate (2.0 mM) were added. The osmolality of the perfusate was kept constant by adjusting the amount of NaCl. The hearts were loaded with a resting voltage of 2 pond (p). The heart rate and contraction force were recorded isometrically and the equipment for this (Hellige GmbH, Freiburg, Germany) were calibrated to 2 p. The coronary flow was determined with the aid of a drop counter, 7 drops corresponding to 1 ml. The values stated are expressed as the percentage increase in coronary circulation after administration of the test substance in the stated dosage via a feed tube (0.1% strength solution in propanediol), based on control hearts without addition of the test substance. The following table contains some of the values measured:
(a) mean value of 28 measurements
(b) the values stated result from in each case two measurements.

[3] = values from in each case two measurements, read-out: Increase in coronary circulation

SMILES | IC50 [1] [nM] | further results
Cc1cccc(C)c1NC(=O)CN1CCN(CCCC(c2ccc(F)cc2)c2ccc(F)cc2)CC1 [Lidoflazine, reference compound] | 430 | 
Fc1ccc(C(CCCN2CCC(CCOc3cccc(C(F)(F)F)c3)CC2)c2ccc(F)cc2)cc1 [Example 74] | 1 | 
Fc1ccc(C(CCCN2CCN(CCOc3ccc(C(F)(F)F)cc3)CC2)c2ccc(F)cc2)cc1 [Example 50] | 4 | activation at 0.0001 mg ([2]; mean value of 28 measurements, read-out: Increase in coronary circulation (mean value)): 38%
Fc1ccc(C(CCCN2CCN(CCOc3cccc4ccccc34)CC2)c2ccc(F)cc2)cc1 [Example 18, 1-[4,4-bis(4-fluorophenyl)butyl]-4-[2-(1-naphthyloxy)ethyl]piperazine] | 48 | 
CN(C)S(=O)(=O)c1ccc(OCCN2CCN(CCCC(c3ccc(F)cc3)c3ccc(F)cc3)CC2)cc1 [Example 83] | 70 | 
CCOC(=O)c1ccc(OCCN2CCN(CCCC(c3ccc(F)cc3)c3ccc(F)cc3)CC2)cc1 [Example 70] |  | activation at 0.0005 mg [2, 3]: 36 to 52%
Fc1ccc(C(CCCN2CCC(CCOc3ccc(C(F)(F)F)cc3)CC2)c2ccc(F)cc2)cc1 [Example 71] | 4.2 | 
Fc1ccc(C(CCCN2CCN(CCOc3ccccc3C(F)(F)F)CC2)c2ccc(F)cc2)cc1 [Example 67] |  | activation at 0.0001 mg [2, 3]: 5 to 21%; activation at 0.0005 mg [2, 3]: 23 to 35%
Fc1ccc(C(CCCN2CCN(CCOC3CCCCC3)CC2)c2ccc(F)cc2)cc1 [Example 16, 1-[4,4-bis(4-fluorophenyl)butyl]-4-[(2-cyclohexoxy)-ethyl]piperazine] | 22 | 
Fc1ccc(C(CCCN2CCN(CCOc3cccc4ncccc34)CC2)c2ccc(F)cc2)cc1 [Example 28] | 65 | 
Cc1ccc(OCCN2CCN(CCCC(c3ccc(F)cc3)c3ccc(F)cc3)CC2)cc1 [Example 17] | 12 | activation at 0.0001 mg [2, 3]: 14 to 17%; activation at 0.0005 mg [2, 3]: 33 to 38%
Fc1ccc(C(CCCN2CCN(CCCCOc3cccc4cnccc34)CC2)c2ccc(F)cc2)cc1 [Example 22] | 85 | 
CC(=O)c1ccccc1OCCN1CCN(CCCC(c2ccc(F)cc2)c2ccc(F)cc2)CC1 [Example 66] | 12 | 
Fc1ccc(C(CCCN2CCC(CCOc3cccc4cnccc34)CC2)c2ccc(F)cc2)cc1 [Example 32] | 12 | 
Fc1ccc(OCCN2CCN(CCCC(c3ccc(F)cc3)c3ccc(F)cc3)CC2)cc1 [Example 45] | 11 | activation at 0.0001 mg [2, 3]: 13 to 26%; activation at 0.0005 mg [2, 3]: 38 to 57%
CC(=O)c1cccc(OCCN2CCN(CCCC(c3ccc(F)cc3)c3ccc(F)cc3)CC2)c1 [Example 64] | 19 | 
NC(=O)C1CN(CCOc2ccccc2)CCN1CCCC(c1ccc(F)cc1)c1ccc(F)cc1 (centres unmarked) [Example 56] | 180 | activation at 0.001 mg ([2]; dose 1.0 μg via feed tube, values from in each case two measurements, read-out: Increase in coronary circulation): 40 to 65%
O=[N+]([O-])c1ccc(OCCN2CCN(CCCC(c3ccc(F)cc3)c3ccc(F)cc3)CC2)cc1 [Example 41] | 8.5 | 
CN(CCCC(c1ccc(F)cc1)c1ccc(F)cc1)C1CCN(CCOc2cccc3cnccc23)CC1 [Example 37] | 400 | 
Fc1ccc(C(CCCN2CCN(CCOc3cc(C(F)(F)F)cc(C(F)(F)F)c3)CC2)c2ccc(F)cc2)cc1 [Example 69] | 2 | 
Fc1ccc(C(CCCN2CCN(CCOc3ccc(Br)cc3)CC2)c2ccc(F)cc2)cc1 [Example 81] | 3.6 | 
CSc1ccc(OCCN2CCN(CCCC(c3ccc(F)cc3)c3ccc(F)cc3)CC2)cc1 [Example 75] | 9 | 
Fc1ccc(C(CCCN2CCN(CCOc3cccc(C(F)(F)F)c3)CC2)c2ccc(F)cc2)cc1 [Example 68] | 0.9 | activation at 0.0001 mg [2, 3]: 20 to 29%
COc1ccc(OCCN2CCN(CCCC(c3ccc(F)cc3)c3ccc(F)cc3)CC2)cc1 [Example 42] |  | activation at 0.0005 mg [2, 3]: 20 to 29%
Fc1ccc(C(CCCN2CCN(CCOc3c(Cl)cccc3Cl)CC2)c2ccc(F)cc2)cc1 [Example 62] |  | activation at 0.0001 mg [2, 3]: 9 to 13%
Fc1cccc(C(CCCN2CCN(CCOc3cccc4cnccc34)CC2)c2cccc(F)c2)c1 [Example 36] | 90 | 
Fc1ccc(C(CCCN2CCC(CCOc3ccccc3C(F)(F)F)CC2)c2ccc(F)cc2)cc1 [Example 73] | 1.2 | 
CC(C)(C)c1ccc(OCCN2CCN(CCCC(c3ccc(F)cc3)c3ccc(F)cc3)CC2)cc1 [Example 46] |  | activation at 0.0001 mg [2, 3]: 12 to 23%; activation at 0.0005 mg [2, 3]: 21 to 36%
O=C(O)C1CN(CCCC(c2ccc(F)cc2)c2ccc(F)cc2)CCN1CCOc1cccc2ccccc12 (centres unmarked) [Example 61] | 60 | 
